The target in test [1] is Anti-cotinine antibody (SEQ ID NO: 11 / SEQ ID NO: 12, rabbit variable region with human IgG1 Fc domain). In words: Binding of anti-cotinine antibody to ARM compounds by SPR, Biacore T200, 37° C. (Example 202). Conditions: pH 7.4, rabbit variable region/human IgG1 Fc antibody captured on protein A. The gist of the method: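 Antibody captured on protein A chip. Compounds injected (3-fold, 5-point, top 200 nM) at 100 μL/min with 200 s association and 2000 s dissociation, at 37° C. in HEPES pH 7.4 buffer with 1% DMSO. Double-referenced data fit to 1:1 kinetics. Kd = koff/kon, reported as pKd, averaged over runs.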
A general note: SPR reads the build-up and loss of mass on a sensor chip optically.

Test [2] deals with T1, CHOK1 cells engineered to overexpress human CCR2 (Homo sapiens, UniProt P41597).
T1 construct: expressed in transfected cells; host or cells: CHOK1 cells
In words: Antibody dependent cellular cytotoxicity (ADCC) reporter assay (Example 199). Type of test: cell-based. Conditions: with anti-cotinine antibody SEQ ID NO: 11/12; CHOK1-human CCR2 target cells, Jurkat FcγRIIIa NFAT-luciferase reporter cells; 12-18 hours; read-out: ADCC Reporter Assay pEC50 (converted). The gist of the method:
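CHOK1-hCCR2 target cells are co-incubated for 12–18 h with Jurkat FcγRIIIa/NFAT-luciferase reporter cells, ARM compound (1 pM–10 μM) and anti-cotinine antibody with a DE-mutant human IgG1 Fc (0.01–200 μg/mL). Luminescence is expressed as signal:background against no-compound wells; EC50 comes from nonlinear fit and is reported as pEC50, averaged across runs.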
On the technique in general: In a reporter assay the amount or activity of a reporter protein is the signal.

Test [3] addresses human alpha1 nicotinic acetylcholine (nACh) receptor (Homo sapiens, UniProt P02708+Q07001). Description: Nicotinic acetylcholine receptor antagonism assay, IONFlux automated patch clamp (Example 203). It is filed as cell-based. Conditions: for Emax at 100 µM: maximum percentage antagonism at maximum concentration tested 100 μM; for IC50: nAChR antagonism, ACh stimulated, patch clamp; for Emax at 10 µM: maximum percentage antagonism at maximum concentration tested 10 μM. Summed up: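 Human α1 nAChR-expressing cells were preincubated with compound (top 10 μM or 100 μM), then stimulated with 10 mM ACh; peak currents were recorded by IONFlux automated patch clamp. Percent inhibition versus ACh-alone control was vehicle- and rundown-corrected, then fitted to give IC50, with maximal antagonism at the top concentration; recordings with control current <500 pA were excluded.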
For orientation: The patch-clamp technique gives a direct electrical read-out from membranes.

The term IC50 denotes the midpoint of a concentration-inhibition curve. Lower therefore signals greater potency in that assay.

Each structure is given as a SMILES string. Where “and” joins values, the source holds several entries; their conditions need not be identical. Equal entries are not always repeated. Some results are limits rather than exact numbers.

Chain of human alpha1 nicotinic acetylcholine (nACh) receptor (P02708 21-457): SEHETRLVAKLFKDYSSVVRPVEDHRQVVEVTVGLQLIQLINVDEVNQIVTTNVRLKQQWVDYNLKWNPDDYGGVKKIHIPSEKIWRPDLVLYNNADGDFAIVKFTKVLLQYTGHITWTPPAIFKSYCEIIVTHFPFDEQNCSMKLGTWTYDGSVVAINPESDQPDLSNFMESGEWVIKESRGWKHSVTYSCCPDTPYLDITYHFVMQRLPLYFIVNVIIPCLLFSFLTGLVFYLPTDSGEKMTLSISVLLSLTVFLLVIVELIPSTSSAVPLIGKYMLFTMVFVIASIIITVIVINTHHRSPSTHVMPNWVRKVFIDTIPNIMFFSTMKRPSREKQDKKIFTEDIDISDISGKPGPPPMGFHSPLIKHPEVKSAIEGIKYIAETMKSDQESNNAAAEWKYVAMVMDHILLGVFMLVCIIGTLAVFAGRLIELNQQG
Chain of human alpha1 nicotinic acetylcholine (nACh) receptor (P11230 24-501 partner): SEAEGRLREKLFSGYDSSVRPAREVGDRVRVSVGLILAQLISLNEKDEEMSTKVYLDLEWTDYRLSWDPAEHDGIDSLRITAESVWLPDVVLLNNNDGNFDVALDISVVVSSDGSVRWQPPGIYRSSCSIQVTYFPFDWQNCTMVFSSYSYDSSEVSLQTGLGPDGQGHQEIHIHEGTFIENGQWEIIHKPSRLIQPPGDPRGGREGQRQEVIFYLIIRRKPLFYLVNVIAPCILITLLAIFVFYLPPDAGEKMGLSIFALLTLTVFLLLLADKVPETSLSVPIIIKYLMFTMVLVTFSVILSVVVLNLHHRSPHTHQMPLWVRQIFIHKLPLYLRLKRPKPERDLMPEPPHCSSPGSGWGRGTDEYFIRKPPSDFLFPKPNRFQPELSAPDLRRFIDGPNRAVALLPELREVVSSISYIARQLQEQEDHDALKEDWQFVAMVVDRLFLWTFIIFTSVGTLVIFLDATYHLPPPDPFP
Chain of human alpha1 nicotinic acetylcholine (nACh) receptor (Q07001 22-517): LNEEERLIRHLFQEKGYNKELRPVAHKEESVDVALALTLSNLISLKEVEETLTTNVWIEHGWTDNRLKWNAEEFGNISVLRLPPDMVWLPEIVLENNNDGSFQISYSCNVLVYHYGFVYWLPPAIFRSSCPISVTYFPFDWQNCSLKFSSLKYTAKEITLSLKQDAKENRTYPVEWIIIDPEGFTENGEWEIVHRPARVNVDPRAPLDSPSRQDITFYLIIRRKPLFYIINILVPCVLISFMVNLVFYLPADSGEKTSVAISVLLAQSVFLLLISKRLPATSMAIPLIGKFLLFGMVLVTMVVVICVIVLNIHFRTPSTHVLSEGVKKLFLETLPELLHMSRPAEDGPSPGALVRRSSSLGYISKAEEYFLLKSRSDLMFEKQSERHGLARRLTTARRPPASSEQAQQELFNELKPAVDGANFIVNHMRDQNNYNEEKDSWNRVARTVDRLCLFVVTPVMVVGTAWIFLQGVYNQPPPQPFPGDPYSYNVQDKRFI

Turning to `CC(C)N(C)[C@@H]1CC[C@H](N2CC[C@H](Nc3ncnc4ccc(C(F)(F)F)cc34)C2=O)[C@H](NC(=O)[C@H]2CC[C@H](C(=O)NCCCOCCCCOCCCNC(=O)[C@H]3CC(=O)N(C)[C@@H]3c3cccnc3)CC2)C1` [Example 194, (1 r,4R)-N^1-((1R,2S,5R)-5-(Isopropyl(methyl)amino)-2-((S)-2-oxo-3-((6-(trifluoromethyl)quinazolin-4-yl)amino)pyrrolidin-1-yl)cyclohexyl)-N^4-(3-(4-(3-((2S,3S)-1-methyl-5-oxo-2-(pyridin-3-yl)pyrrolidine-3-carboxamido)propoxy)butoxy)propyl)cyclohexane-1,4-dicarboxamide], the “pKd of Antibody for ARM Compound of Formula (I)” value (shortened to “pKd of Antibody”) in test [1] was 9.5415. For the same molecule, the EC50 in test [2] is 0.275 nM. Further, in test [3] (read-out: Maximum Response (%)), the Emax at 100 µM is 44.9%. In addition, in test [3], the IC50 is > 100000 nM.

Regarding `CC(C)N(C)[C@@H]1CC[C@H](N2CC[C@H](Nc3ncnc4ccc(C(F)(F)F)cc34)C2=O)[C@H](NC(=O)CCOCCC(=O)N[C@H]2C[C@H](C(=O)NCCOCCNC(=O)[C@H]3CC(=O)N(C)[C@@H]3c3cccnc3)C2)C1` [Example 187], in test [1], the “pKd of Antibody” value was found to be 9.104. The EC50 in test [2] is 0.324 nM. For the same molecule, the Emax at 100 µM in test [3] (read-out: Maximum Response (%)) came out at 63.7%. In test [3], the IC50 worked out at 71100 nM.

Consider `CC(C)N(C)[C@@H]1CC[C@H](N2CC[C@H](Nc3ncnc4ccc(C(F)(F)F)cc34)C2=O)[C@H](NC(=O)[C@H]2CC[C@@H](NC(=O)CCOCCNC(=O)CCNC(=O)CCNC(=O)[C@H]3CC(=O)N(C)[C@@H]3c3cccnc3)CC2)C1` [Example 182, (2S,3S)-N-(3-((3-((2-(3-(((1S,4s)-4-(((1R,2S,5R)-5-(Isopropyl(methyl)amino)-2-((S)-2-oxo-3-((6-(trifluoromethyl)quinazolin-4-yl)amino)pyrrolidin-1-yl)cyclohexyl)carbamoyl)cyclohexyl)amino)-3-oxopropoxy)ethyl)amino)-3-oxopropyl)amino)-3-oxopropyl)-1-methyl-5-oxo-2-(pyridin-3-yl)pyrrolidine-3-carboxamide], for which the “pKd of Antibody” value in test [1] came out at 9.117. In addition, in test [2], the EC50 was 0.514 nM and 0.191 nM. The Emax at 100 µM in test [3] (read-out: Maximum Response (%)) was 61.9%. Half-maximal inhibition in test [3] (IC50) required 76400 nM.

Turning to `CN1C(=O)C[C@H](C(=O)NCCOCCOCCOCCC(=O)N[C@H]2CC[C@@H](C(=O)N[C@@H]3C[C@H](NC(C)(C)C)CC[C@@H]3N3CC[C@H](Nc4ncnc5ccc(C(F)(F)F)cc45)C3=O)CC2)[C@H]1c1cccnc1` [Example 23, (2S,3S)-N-(2-(2-(2-(3-(((1S,4s)-4-(((1R,2S,5R)-5-(tert-Butylamino)-2-((S)-2-oxo-3-((6-(trifluoromethyl)quinazolin-4-yl)amino)pyrrolidin-1-yl)cyclohexyl)carbamoyl)cyclohexyl)amino)-3-oxopropoxy)ethoxy)ethoxy)ethyl)-1-methyl-5-oxo-2-(pyridin-3-yl)pyrrolidine-3-carboxamide], the “pKd of Antibody” value in test [1] amounted to 9.2166. Moreover, in test [2], the EC50 is 1.12 nM and 2.69 nM and 0.566 nM. Besides, the Emax at 100 µM in test [3] (read-out: Maximum Response (%)) worked out at 50.5%. The molecule further showed an IC50 in test [3] of 85200 nM.

Regarding `CC(C)N(C)[C@@H]1CC[C@H](N2CC[C@H](Nc3ncnc4ccc(C(F)(F)F)cc34)C2=O)[C@H](NC(=O)CCOCCNC(=O)CCCO[C@H]2CC[C@H](OCCNC(=O)[C@H]3CC(=O)N(C)[C@@H]3c3cccnc3)CC2)C1` [Example 7], in test [1], the “pKd of Antibody” value is 9.2515. In addition, the EC50 in test [2] is 0.182 nM. The Emax at 100 µM in test [3] (read-out: Maximum Response (%)) turned out to be 95%. In addition, in test [3], inhibition was half-maximal at 13700 nM (IC50).

For the molecule `CC(C)N(C)[C@@H]1CC[C@H](N2CC[C@H](Nc3ncnc4ccc(C(F)(F)F)cc34)C2=O)[C@H](NC(=O)[C@H]2CC[C@@H](NC(=O)CCCC(=O)NCCCOCCCNC(=O)[C@H]3CC(=O)N(C)[C@@H]3c3cccnc3)CC2)C1` [Example 18, N^1-((1S,4s)-4-(((1R,2S,5R)-5-(Isopropyl(methyl)amino)-2-((S)-2-oxo-3-((6-(trifluoromethyl)quinazolin-4-yl)amino)pyrrolidin-1-yl)cyclohexyl)carbamoyl)cyclohexyl)-N^5-(3-(3-((2S,3S)-1-methyl-5-oxo-2-(pyridin-3-yl)pyrrolidine-3-carboxamido)propoxy)propyl)glutaramide], in test [1], the “pKd of Antibody” value is recorded as 9.0895. Also, the EC50 in test [2] is 0.675 nM and 0.132 nM. Moreover, in test [3] (read-out: Maximum Response (%)), the Emax at 100 µM was 44.9%. In addition, in test [3], the 50% inhibitory concentration (IC50) was > 100000 nM.

For `CC(C)N(C)[C@@H]1CC[C@H](N2CC[C@H](Nc3ncnc4ccc(C(F)(F)F)cc34)C2=O)[C@H](NC(=O)[C@H]2CC[C@H](C3CCN(C(=O)CCOCCOCCNC(=O)[C@H]4CC(=O)N(C)[C@@H]4c4cccnc4)CC3)CC2)C1` [compound 73], the “pKd of Antibody” value in test [1] was found to be 9.8185. Also, the EC50 in test [2] was 7.94 nM. Moreover, the Emax at 10 µM in test [3] (read-out: Maximum Response (%)) amounted to 4.1%. The IC50 in test [3] was > 10000 nM.

Turning to `CC(C)N(C)[C@@H]1CC[C@H](N2CC[C@H](Nc3ncnc4ccc(C(F)(F)F)cc34)C2=O)[C@H](NC(=O)[C@H]2CC[C@@H](NC(=O)CCOCCOCCOCCNC(=O)[C@H]3CC(=O)N(C)[C@@H]3c3cccnc3)CC2)C1` [Example 28], in test [1], the “pKd of Antibody” value is on record as 9.273. For the same molecule, the EC50 in test [2] was 0.251 nM. Moreover, in test [3] (read-out: Maximum Response (%)), the Emax at 100 µM came to 69.9%. This molecule yielded an IC50 in test [3] of 40900 nM.

Take `CC(C)N(C)[C@@H]1CC[C@H](N2CC[C@H](Nc3ncnc4ccc(C(F)(F)F)cc34)C2=O)[C@H](NC(=O)CCNC(=O)CCCOC[C@H]2CC[C@@H](COCCNC(=O)[C@H]3CC(=O)N(C)[C@@H]3c3cccnc3)CC2)C1` [Example 62]: in test [1], the “pKd of Antibody” value stood at 9.6305. The EC50 in test [2] is 0.867 nM. For the same molecule, the Emax at 100 µM in test [3] (read-out: Maximum Response (%)) came to 67.9%. Further, in test [3], the IC50 was 29000 nM.

Take `CC(C)N(C)[C@@H]1CC[C@H](N2CC[C@H](Nc3ncnc4ccc(C(F)(F)F)cc34)C2=O)[C@H](NC(=O)[C@H]2CC[C@@H](NC(=O)CCCO[C@H]3CC[C@H](OCCNC(=O)[C@H]4CC(=O)N(C)[C@@H]4c4cccnc4)CC3)CC2)C1` [Example 5]: the “pKd of Antibody” value in test [1] amounted to 9.19. The EC50 in test [2] is 0.316 nM and 0.386 nM. In addition, in test [3] (read-out: Maximum Response (%)), the Emax at 100 µM stood at 40.5%. In addition, the IC50 in test [3] is > 100000 nM.

With `CC(C)N(C)[C@@H]1CC[C@H](N2CC[C@H](Nc3ncnc4ccc(C(F)(F)F)cc34)C2=O)[C@H](NC(=O)[C@H]2CC[C@@H](NC(=O)CCCO[C@H]3CC[C@H](NC(=O)CCNC(=O)[C@@H]4CC(=O)N(C)[C@H]4c4cccnc4)CC3)CC2)C1` [Example 52, (2S,3S)-N-(3-(((1R,4S)-4-(4-(((1S,4S)-4-(((1R,2S,5R)-5-(Isopropyl(methyl)amino)-2-((S)-2-oxo-3-((6-(trifluoromethyl)quinazolin-4-yl)amino)pyrrolidin-1-yl)cyclohexyl)carbamoyl)cyclohexyl)amino)-4-oxobutoxy)cyclohexyl)amino)-3-oxopropyl)-1-methyl-5-oxo-2-(pyridin-3-yl)pyrrolidine-3-carboxamide], in test [1], the “pKd of Antibody” value is listed as 9.2545. Besides, in test [2], the EC50 was 0.222 nM and 0.294 nM. Besides, the Emax at 33.33 µM in test [3] (maximum percentage antagonism at maximum concentration tested 33.33 μM, read-out: Maximum Response (%)) is 8.3%. Moreover, the IC50 in test [3] is > 33300 nM.

In the case of `CC(C)N(C)[C@@H]1CC[C@H](N2CC[C@H](Nc3ncnc4ccc(C(F)(F)F)cc34)C2=O)[C@H](NC(=O)[C@H]2CC[C@H](NC(=O)CCOCCOCCOCCNC(=O)[C@H]3CC(=O)N(C)[C@@H]3c3cccnc3)CC2)C1` [Example 30], in test [1], the “pKd of Antibody” value amounted to 9.3155. Moreover, in test [2], the EC50 was 7.53 nM. Moreover, the Emax at 10 µM in test [3] (read-out: Maximum Response (%)) came out at 5.4%. Further, the IC50 in test [3] is > 10000 nM.

Consider `CC(C)N(C)[C@@H]1CC[C@H](N2CC[C@H](Nc3ncnc4ccc(C(F)(F)F)cc34)C2=O)[C@H](NC(=O)[C@H]2CC[C@@H](NC(=O)CCOCCOCCNC(=O)CNC(=O)[C@H]3CC(=O)N(C)[C@@H]3c3cccnc3)CC2)C1` [Example 63, (2S,3S)-N-(2-((2-(2-(3-(((1 S,4s)-4-(((1R,2S,5R)-5-(Isopropyl(methyl)amino)-2-((S)-2-oxo-3-((6-(trifluoromethyl)quinazolin-4-yl)amino)pyrrolidin-1-yl)cyclohexyl)carbamoyl)cyclohexyl)amino)-3-oxopropoxy)ethoxy)ethyl)amino)-2-oxoethyl)-1-methyl-5-oxo-2-(pyridin-3-yl)pyrrolidine-3-carboxamide], for which the “pKd of Antibody” value in test [1] was 8.674. For the same molecule, the EC50 in test [2] is 0.67 nM and 0.31 nM. For the same molecule, the Emax at 100 µM in test [3] (read-out: Maximum Response (%)) came to 76.6%. The IC50 in test [3] was 38500 nM.

The record behind these values is patent US20250136722A1, “CYTOTOXICITY TARGETING CHIMERAS” (GLAXOSMITHKLINE INTELLECTUAL PROPERTY DEVELOPMENT LIMITED, priority 2021, published 2025).
